In patent US11110092B2, “Methods of treating hematologic cancers” (BIOCRYST PHARMACEUTICALS, INC, priority 2007, dated 2021):
Like-named read-outs stand apart in the source and are kept apart here. Peptide text beside a SMILES is read from it. * marks the point of attachment. Cbz = O=C(OCc1ccccc1)*; CH2F = FC*

Legend:
[1] = system: mitochondrial transmembrane potential in CLL cells; assay: Loss of mitochondrial transmembrane potential (DiOC6 staining, flow cytometry); assay type: cell-based, human; details: for effect of pre-incubation on Δψm loss induced by forodesine: ROS scavenger pre-incubation
Procedure: (§1) Cells were incubated for different time points with forodesine at doses ranging from 1 to 12 μM in the presence or absence of 10-20-30 μM of deoxyguanosine (dGuo). When indicated, cells were pre-incubated for 1 hour with the pan-caspase inhibitor z-VAD.fmk (benzyloxy-carbonyl-Val-Ala-Asp-fluoro-methylketone; Bachem, Bubendorf, Switzerland) at 80 the caspase-8 inhibitor z-IETD.fmk at 50 μM (Z-Ile-Glu(OMe)Thr-DL-Asp (OMe)-fluoromethylketone, Bachem), 2′-deoxycytidine (5-10-20 μM, Sigma), N-acetyl-L-cysteine (NAC, 25 mM), Tiron (5 mM, 4,5-Dihydroxy-1,3-Benzene-disulfonic acid, Sigma) or GSH (2 mM; Sigma). […] Loss of mitochondrial transmembrane potential (ΔΨm) were evaluated by staining cells with 20 nM of DiOC6 (3,3-diexyloxacarbocyanine iodide, Molecular Probes) and reactive oxygen species (ROS) production was determined by staining cells with 2 μM dihydroethidine (DHE; Molecular Probes) and flow cytometry analysis.

[2] = system: primary leukemic cells from patients with CLL; parameters: cell death: dose or concentration left out as unconfirmed
Procedure: The present in vitro study was carried out in primary leukemic lymphocytes from 43 patients diagnosed with CLL according to the World Health Organization classification. Informed consent was obtained from each patient.
Peripheral blood mononuclear cells (PBMCs) cells were isolated by Ficoll/Hypaque sedimentation (Seromed, Berlin, Germany). Cells were either used directly or cryopreserved in liquid nitrogen in the presence of 10% dimethyl sulfoxide and 90% heat-inactivated fetal bovine serum (FBS, Gibco Paisley, Scotland, UK).
Cells were incubated for different time points with forodesine at doses ranging from 1 to 12 μM in the presence or absence of 10-20-30 μM of deoxyguanosine (dGuo). When indicated, cells were pre-incubated for 1 hour with the pan-caspase inhibitor z-VAD.fmk (benzyloxy-carbonyl-Val-Ala-Asp-fluoro-methylketone; Bachem, Bubendorf, Switzerland) at 80 the caspase-8 inhibitor z-IETD.fmk at 50 μM (Z-Ile-Glu(OMe)Thr-DL-Asp (OMe)-fluoromethylketone, Bachem), 2′-deoxycytidine (5-10-20 μM, Sigma), N-acetyl-L-cysteine (NAC, 25 mM), Tiron (5 mM, 4,5-Dihydroxy-1,3-Benzene-disulfonic acid, Sigma) or GSH (2 mM; Sigma). […] Cell viability and apoptosis induction was analyzed by changes in cell complexity by means of FSC/SSC, quantification of phosphatidyl serine (PS) exposure by double staining with Annexin-V conjugated to fluorescein isothiocyanate (FITC) and propidium iodide (PI) (BenderMedsystems, Vienna, Austria). For the analysis of apoptosis in the CD3^+ and CD19^− populations, PBMCs were labeled simultaneously with anti-CD3-FITC (Immunotech, Marseille, France), anti-CD19-PE (Becton Dickinson) and Annexin-V-APC. Cell viability and cytotoxicity were plotted as percentage with respect to control cells. Loss of mitochondrial transmembrane potential (ΔΨm) were evaluated by staining cells with 20 nM of DiOC6 (3,3-diexyloxacarbocyanine iodide, Molecular Probes) and reactive oxygen species (ROS) production was determined by staining cells with 2 μM dihydroethidine (DHE; Molecular Probes) and flow cytometry analysis. […] In brief, cells were washed once in PBS and fixed in paraformaldehyde 4%, permeabilized with 0.1% saponin and 0.5% bovine serum albumin (BSA). […] After several washes in permeabilization buffer, cells were incubated with a secondary goat anti-mouse FITC (DAKO) or goat anti-rabbit FITC (Supertechs) antibody and washed again with permeabilization buffer. Ten thousand stained cells per sample were then analyzed by flow cytometry.

ROS in CLL primary cells = assay: Reactive oxygen species production (dihydroethidine staining, flow cytometry); assay type: cell-based, human; details: for effect of pre-incubation on ROS production induced by forodesine: ROS scavenger pre-incubation
Procedure: as §1

[3] = system: dCK phosphorylated at Ser-74 in CLL cells; assay: Western blot of dCK phosphorylation at Ser-74; assay type: cell-based, human
p73 in CLL cells = assay: p73 mRNA (real time RT-PCR) and TAp73 protein levels; assay type: cell-based, human; details: all CLL cases analyzed
Procedure: Cells were lysed for 15 min in RIPA buffer supplemented with protease and phosphatase inhibitors (leupeptine 10 μg/ml, apoprotinine 10 μg/ml, 1 μM PMSF, 1 μM sodium ortovanadate, 1 μM NaF, 2 μM sodium pyrophosphate decahydrate (Sigma)). Total cellular proteins were separated by SDS-PAGE under reducing conditions and transferred to Immobilon-P (Millipore) membranes. […] Equal protein loading was confirmed with β-actin or α-tubulin expression and relative protein quantification was done with Image Gauge Fujifilm software (Fuji). […] The expression levels of p73 and Mcl-1 were determined in an ABI Prism 7900HT Sequence Detection System (Applied Biosystems, Foster City, Calif.) using pre-designed Assay-on-demand (Applied Biosystems). The relative expression of each gene was quantified by the comparative cycle threshold (Ct) method (ΔΔCt), using GUS as an endogenous control. mRNA expression levels were given as arbitrary quantitative PCR units, taking as a calibrator the control sample (untreated) of each case.

[4] = Gandhi et al. 2005; Korycka et al. 2007; cited from earlier work
BAX and BAK in CLL cells = assay: BAX and BAK activation by flow cytometry (conformational change); assay type: cell-based, human; details: incubation of CLL cells with forodesine
MCL-1 in CLL cells = assay: MCL-1 protein levels by immunoblotting; assay type: cell-based, human; details: forodesine treatment
BCL-2 in CLL cells = assay: BCL-2 protein levels by immunoblotting; assay type: cell-based, human; details: forodesine treatment
[5] = system: FOXO1 and FOXO3a in CLL cells; assay: FOXO1 and FOXO3a levels by immunoblotting; assay type: cell-based, human; details: CLL cells treated with forodesine
[6] = system: XIAP and survivin in CLL cells; assay: XIAP and survivin levels by immunoblotting; assay type: cell-based, human; details: forodesine treatment
p53 in CLL cells = assay: p53 protein stabilization by immunoblotting; assay type: cell-based, human; details: CLL cases with no 17p deletion
[7] = system: caspase-9, -8 and -3 in CLL cells; assay: Caspase activation by immunoblotting; assay type: cell-based, human; details: as early as 10 hours of forodesine treatment
[8] = system: intracellular dGTP in CLL primary cells; assay: Measurement of intracellular dGTP levels (DNA polymerase assay); assay type: cell-based, human; details: forodesine 2 μM and dGuo 10 μM; 26 CLL patients; 18 hours
Procedure: 15×10^6 of CLL primary cells were incubated with or without forodesine (2 μM) and dGuo (10 μM) or fludarabine (1 μg/ml) for 18 hours and the nucleotides were extracted with 60% methanol and intracellular dGTP levels were quantified by DNA polymerase assay as modified by Sherman and Fyfe (Sherman et al., Anal Biochem, 180(2), 222-226 (1989)). Data were expressed in fold induction of intracellular dGTP levels respect of control cells. In parallel, cell viability at 24 and 48 hours were also evaluated.

BIM in CLL cells = assay: BIM protein levels by immunoblotting; assay type: cell-based, human; details: forodesine treatment
BID in CLL cells = assay: BID processing by immunoblotting; assay type: cell-based, human; details: forodesine treatment
[9] = caspase-8 inhibitor pre-incubation

For `CC[C@H](C)[C@H](NC(=O)OCc1ccccc1)C(=O)N[C@@H](CCC(=O)OC)C(=O)N[C@H](C(=O)N[C@@H](CC(=O)OC)C(=O)CF)[C@@H](C)O` (racemic) [z-IETD.fmk, Z-Ile-Glu(OMe)Thr-DL-Asp (OMe)-fluoromethylketone], the “reversion of ΔΨm loss induced by forodesine” value [1, 9] was “more pronounced” and the “effect on forodesine apoptosis induction (Annexin V staining)” value [2, 9] was “partially blocked”.
With `CCOC(=O)CNC(=O)[C@H](CS)NC(=O)CC[C@H](N)C(=O)O` [GSH, glutathione-reduced ethyl ester] the “effect of pre-incubation on ROS production induced by forodesine” value (ROS in CLL primary cells) was “moderated” and the “effect of pre-incubation on Δψm loss induced by forodesine” value [1] was “reduced Δψm loss”.
For Rituximab, the cell death ([2]; single agent or combined with forodesine, 24 hours) was “low”.
With `Nc1nc(F)nc2c1ncn2[C@@H]1O[C@H](CO)[C@@H](O)[C@@H]1O` [Fludarabine] the mean cytotoxicity [2] was 25.1±13% and the “mean cytotoxicity as single agents” value [2] was 50.6±11%.
In the case of `Cl.Cn1c(CCCC(=O)O)nc2cc(N(CCCl)CCCl)ccc21` [Bendamustine], the “phosphorylated form (at Ser-74) of dCK” value [3] is reported as “not exerted”.
With `COC(=O)C[C@H](NC(=O)[C@H](C)NC(=O)[C@@H](NC(=O)OCc1ccccc1)C(C)C)C(=O)CF` [z-VAD.fmk, benzyloxy-carbonyl-Val-Ala-Asp-fluoro-methylketone] (Cbz-Val-Ala-Asp(OMe)-CH2F) the “effect on phosphatidylserine exposure after forodesine treatment” value ([2]; broad range caspase inhibitor pre-incubation, forodesine 24 hours) was “partially reduced phospatidylserine exposure”.
For `Nc1ccn([C@H]2C[C@H](O)[C@@H](CO)O2)c(=O)n1` [deoxycytidine, 2′-deoxycytidine], the “effect of pre-incubation on forodesine-induced cell death” value ([2]; deoxycytidine 5-10 μM) was “inhibited forodesine-induced cell death”, the “effect on cell death induced by bendamustine” value ([2]; deoxycytidine pre-incubation) was “not reverted” and the “effect on loss of cell viability induced by fludarabine” value ([2]; deoxycytidine pre-incubation) was “reverted the loss of cell viability”.
In the case of `Cl.O=c1[nH]cnc2c([C@@H]3N[C@H](CO)[C@@H](O)[C@H]3O)c[nH]c12` [Forodesine], the “p73 mRNA and TAp73 protein levels” value (p73 in CLL cells) is given as “clear up-regulation”, the toxicity profile [4] is given as “low toxicity profile” and the “activation of BAX and BAK” value (BAX and BAK in CLL cells) is given as “induced the conformational change of BAX and BAK”. The MCL-1 protein levels (MCL-1 in CLL cells) was “considerably decreased”, the ROS production (ROS in CLL primary cells; CLL primary cells, evident after 10 hours) was “induced the production of ROS” and the BCL-2 protein levels (BCL-2 in CLL cells) was “not affected”. For the same molecule, the “mitochondrial transmembrane potential (Δψm)” value ([1]; early times, evident after 10 hours) was “induced loss of mitochondrial transmembrane potential”, the “cytotoxic effect of agent alone” value [2] was “did not induce a cytotoxic effect” and the “share of cases with cytotoxic effect between 40-60%” value [2] was 41.8%. For the same molecule, the “response of p53 deleted CLL cases” value ([2]; 11 CLL patients with 17p deletions, Forodesine 2 μM+dGuo 20 μM, 48 hours) was “high response”, the “response in samples with no or low in vitro response to bendamustine 25 μM and/or fludarabine 1 μg/ml” value ([2]; 12 of 32 CLL patient samples) was “high response” and the mean cytoxicity ([2]; CLL cells with high levels of ZAP-70, 22 CLL patients) was 57.9%±12. The “mean cytoxicity with respect to control” value ([2]; CLL cells with low levels of ZAP-70, 17 CLL patients) was 58.1%±11, the “response of CLL cells with low or no sensitivity to Bendamustine or Fludarabine” value ([2]; Forodesine 2 μM and dGuo 10-20 μM) was “good response” and the “cell death (Annexin-V+ staining)” value ([2]; forodesine 2-5-10 μM with dGuo 10-20 or 30 μM, 48 hours) was “induced cell death”. For the same molecule, the “response in CLL cells with 13q deletion, 11q deletion and 17p deletion” value ([2]; forodesine-induced cytotoxicity) was “good response”, the “cell death, CLL fresh samples” value ([2]; n=10, 48 hours) was 56.6%±6.4 and the “cell death, cryopreserved primary CLL samples” value ([2]; n=32, 48 hours) was 58.3%±11. The “FOXO1 and FOXO3a levels” value [5] was “induced an increase in both, FOXO1 and FOXO3a”, the “XIAP and survivin levels” value [6] was “decrease of the inhibitors of apoptosis XIAP and survivin” and the “phosphorylated form (at Ser-74) of dCK” value ([3]; western blot in CLL cells) was “increase in the phosphorylated form”. For the same molecule, the p53 protein (p53 in CLL cells) was “induce stabilization of p53 protein”, the “activation of caspase-9, -8 and -3 (processing of pro-inactive form)” value [7] was “dose- and time-dependent activation” and the “increase in intracellular dGTP levels with respect to control basal levels” value [8] was “up to 96 times fold increase”. For the same molecule, the BIM protein levels (BIM in CLL cells) was “induced an increase” and the BID protein (BID in CLL cells) was “induced a decreased of BH3-only protein BID”.
For `Nc1nc2c(ncn2[C@H]2C[C@H](O)[C@@H](CO)O2)c(=O)[nH]1` [dGuo, deoxyguanosine], the “cytotoxic effect of agent alone” value [2] was “did not induce a cytotoxic effect”.
In the case of `CC(=O)N[C@@H](CS)C(=O)O` [NAC, N-acetyl-L-cysteine], the “effect of pre-incubation on ROS production induced by forodesine” value (ROS in CLL primary cells) is reported as “practically reverted ROS production” and the “effect of pre-incubation on Δψm loss induced by forodesine” value [1] is reported as “reduced Δψm loss”.
With `O=S(=O)(O)c1cc(O)c(O)c(S(=O)(=O)O)c1` [Tiron, 4,5-Dihydroxy-1,3-Benzene-disulfonic acid] the “effect of pre-incubation on ROS production induced by forodesine” value (ROS in CLL primary cells) was “practically reverted ROS production” and the “effect of pre-incubation on Δψm loss induced by forodesine” value [1] was “reduced Δψm loss”.
